In the kinase profiling compilation of Christmann-Franck et al. (2016):

Columns and labels:
Assay in all cases: KINOMEscan competition binding
Conditions in all cases: compound 10.0 µM
CDK7 (human) = CDK7 (human) (UniProt P50613)
PHKG1 (human) = PHKG1 (human) (UniProt Q16816)
CSNK1D (human) = CSNK1D (human) (UniProt P48730)
ACVR1 (human) = ACVR1 (human) (UniProt Q04771)
ACVR2B (human) = ACVR2B (human) (UniProt Q13705)
MYO3A (human) = MYO3A (human) (UniProt Q8NEV4)
PAK2 (human) = PAK2 (human) (UniProt Q13177)
NUAK1 (human) = NUAK1 (human) (UniProt O60285)
ULK1 (human) = ULK1 (human) (UniProt O75385)
PTK2B (human) = PTK2B (human) (UniProt Q14289)
DCLK2 (human) = DCLK2 (human) (UniProt Q8N568)
TGFBR1 (human) = TGFBR1 (human) (UniProt P36897)
MAP3K4 (human) = MAP3K4 (human) (UniProt Q9Y6R4)
MAP3K11 (human) = MAP3K11 (human) (UniProt Q16584)
[1] = biological target: JAK2 JH1 catalytic (human) (UniProt O60674)
STK25 (human) = STK25 (human) (UniProt O00506)
DAPK1 (human) = DAPK1 (human) (UniProt P53355)
MLTK (human) = MLTK (human) (UniProt Q9NYL2)
PRKACA (human) = PRKACA (human) (UniProt P17612)
RIOK3 (human) = RIOK3 (human) (UniProt O14730)
CSNK1G1 (human) = CSNK1G1 (human) (UniProt Q9HCP0)
PDGFRA (human) = PDGFRA (human) (UniProt P16234)
EPHA8 (human) = EPHA8 (human) (UniProt P29322)
NEK9 (human) = NEK9 (human) (UniProt Q8TD19)
ANKK1 (human) = ANKK1 (human) (UniProt Q8NFD2)
LATS1 (human) = LATS1 (human) (UniProt O95835)
GSK3A (human) = GSK3A (human) (UniProt P49840)
PIK3CB (human) = PIK3CB (human) (UniProt P42338)
CAMKK2 (human) = CAMKK2 (human) (UniProt Q96RR4)
TLK2 (human) = TLK2 (human) (UniProt Q86UE8)
AURKB (human) = AURKB (human) (UniProt Q96GD4)
PLK1 (human) = PLK1 (human) (UniProt P53350)
PHKG2 (human) = PHKG2 (human) (UniProt P15735)
LYN (human) = LYN (human) (UniProt P07948)
RPS6KA6 KD2 (human) = RPS6KA6 KD2 (human) (UniProt Q9UK32)
CDK14 (human) = CDK14 (human) (UniProt O94921)
ADCK4 (human) = ADCK4 (human) (UniProt Q96D53)
CDK16 (human) = CDK16 (human) (UniProt Q00536)
NEK1 (human) = NEK1 (human) (UniProt Q96PY6)
RET (human) = RET (human) (UniProt P07949)

Chain of AURKB (human) (Q96GD4 whole entry, looked up): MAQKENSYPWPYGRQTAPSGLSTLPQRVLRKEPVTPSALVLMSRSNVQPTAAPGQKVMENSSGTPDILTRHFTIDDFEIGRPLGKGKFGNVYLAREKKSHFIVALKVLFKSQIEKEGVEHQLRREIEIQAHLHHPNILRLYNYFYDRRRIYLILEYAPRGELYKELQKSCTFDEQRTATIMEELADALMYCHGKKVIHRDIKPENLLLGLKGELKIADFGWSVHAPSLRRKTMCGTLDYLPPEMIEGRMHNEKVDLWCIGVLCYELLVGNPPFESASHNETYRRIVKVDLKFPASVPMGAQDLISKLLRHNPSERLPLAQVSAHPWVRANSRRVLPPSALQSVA
Chain of CAMKK2 (human) (Q96RR4 whole entry, looked up): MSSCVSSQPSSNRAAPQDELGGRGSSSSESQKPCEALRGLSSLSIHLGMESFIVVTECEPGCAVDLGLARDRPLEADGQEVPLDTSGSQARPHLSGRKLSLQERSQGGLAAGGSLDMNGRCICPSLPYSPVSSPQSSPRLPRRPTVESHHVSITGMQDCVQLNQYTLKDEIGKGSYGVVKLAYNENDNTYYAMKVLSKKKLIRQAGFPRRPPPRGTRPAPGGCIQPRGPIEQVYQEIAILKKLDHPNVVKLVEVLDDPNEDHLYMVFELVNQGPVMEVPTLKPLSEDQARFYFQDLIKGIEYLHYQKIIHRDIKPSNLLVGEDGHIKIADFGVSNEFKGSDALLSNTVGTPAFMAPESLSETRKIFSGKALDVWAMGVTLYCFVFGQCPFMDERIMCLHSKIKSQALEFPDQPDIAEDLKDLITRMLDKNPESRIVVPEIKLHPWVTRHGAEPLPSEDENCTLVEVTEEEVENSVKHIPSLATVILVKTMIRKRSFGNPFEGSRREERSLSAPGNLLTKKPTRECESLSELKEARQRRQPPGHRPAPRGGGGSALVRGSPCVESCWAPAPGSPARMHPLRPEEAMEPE
Chain of CSNK1D (human) (P48730 whole entry, looked up): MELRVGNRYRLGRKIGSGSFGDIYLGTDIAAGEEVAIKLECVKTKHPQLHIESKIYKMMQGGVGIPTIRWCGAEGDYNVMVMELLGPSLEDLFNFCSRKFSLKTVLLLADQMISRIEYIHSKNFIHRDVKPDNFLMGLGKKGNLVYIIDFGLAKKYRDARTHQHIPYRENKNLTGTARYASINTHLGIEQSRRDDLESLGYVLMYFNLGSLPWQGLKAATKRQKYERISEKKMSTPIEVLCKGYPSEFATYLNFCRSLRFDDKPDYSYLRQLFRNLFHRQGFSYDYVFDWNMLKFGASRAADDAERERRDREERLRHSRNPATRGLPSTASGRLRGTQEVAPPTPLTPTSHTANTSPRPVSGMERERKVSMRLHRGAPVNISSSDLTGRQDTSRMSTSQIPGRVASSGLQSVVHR
Chain of MAP3K4 (human) (Q9Y6R4 whole entry, looked up): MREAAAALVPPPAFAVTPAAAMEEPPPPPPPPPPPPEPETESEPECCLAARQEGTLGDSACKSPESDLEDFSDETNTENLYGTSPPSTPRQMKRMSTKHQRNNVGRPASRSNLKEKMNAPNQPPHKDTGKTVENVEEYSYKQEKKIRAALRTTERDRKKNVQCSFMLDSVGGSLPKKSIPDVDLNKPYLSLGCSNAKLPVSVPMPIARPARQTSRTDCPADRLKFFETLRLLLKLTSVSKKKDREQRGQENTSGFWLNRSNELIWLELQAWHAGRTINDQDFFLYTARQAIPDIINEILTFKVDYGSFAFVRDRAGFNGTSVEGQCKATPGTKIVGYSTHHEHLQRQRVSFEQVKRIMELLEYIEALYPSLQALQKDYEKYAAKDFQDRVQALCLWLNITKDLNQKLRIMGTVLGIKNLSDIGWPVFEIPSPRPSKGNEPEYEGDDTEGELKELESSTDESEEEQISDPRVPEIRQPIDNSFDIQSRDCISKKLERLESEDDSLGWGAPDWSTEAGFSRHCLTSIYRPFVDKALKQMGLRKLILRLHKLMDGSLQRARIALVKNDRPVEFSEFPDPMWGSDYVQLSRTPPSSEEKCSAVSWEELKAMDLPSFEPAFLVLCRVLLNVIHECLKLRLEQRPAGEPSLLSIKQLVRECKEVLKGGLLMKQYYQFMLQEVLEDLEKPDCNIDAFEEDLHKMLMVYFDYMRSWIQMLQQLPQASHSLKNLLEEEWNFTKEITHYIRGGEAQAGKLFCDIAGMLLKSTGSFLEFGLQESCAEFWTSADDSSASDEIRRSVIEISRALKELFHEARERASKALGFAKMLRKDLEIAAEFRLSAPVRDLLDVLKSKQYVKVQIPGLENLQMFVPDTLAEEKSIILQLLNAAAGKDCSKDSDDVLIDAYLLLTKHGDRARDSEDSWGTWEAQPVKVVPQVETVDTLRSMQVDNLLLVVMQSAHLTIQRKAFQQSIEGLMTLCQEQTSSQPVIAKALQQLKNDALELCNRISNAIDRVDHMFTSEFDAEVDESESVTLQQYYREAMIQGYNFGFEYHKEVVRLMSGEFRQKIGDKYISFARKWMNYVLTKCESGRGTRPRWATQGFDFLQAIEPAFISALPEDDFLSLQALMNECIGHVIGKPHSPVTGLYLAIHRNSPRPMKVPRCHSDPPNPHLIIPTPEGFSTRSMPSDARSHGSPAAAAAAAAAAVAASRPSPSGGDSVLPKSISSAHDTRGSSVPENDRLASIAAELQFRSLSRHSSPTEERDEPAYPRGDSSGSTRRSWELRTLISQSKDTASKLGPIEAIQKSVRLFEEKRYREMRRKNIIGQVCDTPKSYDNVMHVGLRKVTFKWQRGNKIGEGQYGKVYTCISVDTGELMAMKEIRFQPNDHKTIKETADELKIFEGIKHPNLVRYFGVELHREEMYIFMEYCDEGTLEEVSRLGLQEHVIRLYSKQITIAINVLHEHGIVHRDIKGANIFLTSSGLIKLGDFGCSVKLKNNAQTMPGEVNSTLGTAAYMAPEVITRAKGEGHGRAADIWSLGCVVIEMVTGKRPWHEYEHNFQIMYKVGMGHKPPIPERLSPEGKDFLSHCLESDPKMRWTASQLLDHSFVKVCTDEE
Chain of RPS6KA6 KD2 (human) (Q9UK32 whole entry, looked up): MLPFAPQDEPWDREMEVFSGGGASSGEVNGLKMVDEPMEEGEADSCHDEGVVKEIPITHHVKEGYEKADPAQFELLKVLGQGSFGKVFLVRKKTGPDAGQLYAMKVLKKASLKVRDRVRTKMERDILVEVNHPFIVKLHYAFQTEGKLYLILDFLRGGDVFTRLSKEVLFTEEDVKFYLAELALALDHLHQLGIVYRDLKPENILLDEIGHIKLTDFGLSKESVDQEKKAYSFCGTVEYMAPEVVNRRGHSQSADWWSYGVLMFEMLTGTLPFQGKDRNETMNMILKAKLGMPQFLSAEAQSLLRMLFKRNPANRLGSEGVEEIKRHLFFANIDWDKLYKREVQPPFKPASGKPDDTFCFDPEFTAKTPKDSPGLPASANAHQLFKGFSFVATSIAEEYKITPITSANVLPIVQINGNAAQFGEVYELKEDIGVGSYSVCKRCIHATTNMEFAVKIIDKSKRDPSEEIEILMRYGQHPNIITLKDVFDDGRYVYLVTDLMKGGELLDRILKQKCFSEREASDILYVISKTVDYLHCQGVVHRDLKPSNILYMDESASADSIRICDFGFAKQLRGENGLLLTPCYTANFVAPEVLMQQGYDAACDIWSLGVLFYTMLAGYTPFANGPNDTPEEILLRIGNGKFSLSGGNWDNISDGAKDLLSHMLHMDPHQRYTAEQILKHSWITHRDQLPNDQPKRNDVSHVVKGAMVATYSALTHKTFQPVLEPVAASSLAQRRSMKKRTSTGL
Chain of ANKK1 (human) (Q8NFD2 whole entry, looked up): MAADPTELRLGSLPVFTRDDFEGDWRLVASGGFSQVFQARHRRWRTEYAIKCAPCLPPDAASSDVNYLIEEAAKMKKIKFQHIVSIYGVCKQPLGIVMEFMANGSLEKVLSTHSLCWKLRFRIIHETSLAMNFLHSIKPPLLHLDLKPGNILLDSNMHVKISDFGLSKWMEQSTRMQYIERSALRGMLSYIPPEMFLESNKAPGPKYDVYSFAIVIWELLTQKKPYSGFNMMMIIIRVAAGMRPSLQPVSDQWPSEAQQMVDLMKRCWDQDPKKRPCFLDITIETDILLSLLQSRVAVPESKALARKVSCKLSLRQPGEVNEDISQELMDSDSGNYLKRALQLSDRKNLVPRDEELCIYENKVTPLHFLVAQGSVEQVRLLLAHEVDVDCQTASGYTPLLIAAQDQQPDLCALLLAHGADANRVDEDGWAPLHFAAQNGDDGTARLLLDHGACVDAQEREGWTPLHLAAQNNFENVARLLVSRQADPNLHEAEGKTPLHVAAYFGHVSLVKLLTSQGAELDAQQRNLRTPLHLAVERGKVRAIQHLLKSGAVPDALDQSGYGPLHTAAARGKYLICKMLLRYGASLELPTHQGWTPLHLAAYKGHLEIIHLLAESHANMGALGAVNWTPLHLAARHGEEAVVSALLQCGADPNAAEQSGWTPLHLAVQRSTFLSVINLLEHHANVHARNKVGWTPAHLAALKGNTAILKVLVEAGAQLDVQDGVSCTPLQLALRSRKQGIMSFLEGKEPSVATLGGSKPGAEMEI
Chain of PAK2 (human) (Q13177 whole entry, looked up): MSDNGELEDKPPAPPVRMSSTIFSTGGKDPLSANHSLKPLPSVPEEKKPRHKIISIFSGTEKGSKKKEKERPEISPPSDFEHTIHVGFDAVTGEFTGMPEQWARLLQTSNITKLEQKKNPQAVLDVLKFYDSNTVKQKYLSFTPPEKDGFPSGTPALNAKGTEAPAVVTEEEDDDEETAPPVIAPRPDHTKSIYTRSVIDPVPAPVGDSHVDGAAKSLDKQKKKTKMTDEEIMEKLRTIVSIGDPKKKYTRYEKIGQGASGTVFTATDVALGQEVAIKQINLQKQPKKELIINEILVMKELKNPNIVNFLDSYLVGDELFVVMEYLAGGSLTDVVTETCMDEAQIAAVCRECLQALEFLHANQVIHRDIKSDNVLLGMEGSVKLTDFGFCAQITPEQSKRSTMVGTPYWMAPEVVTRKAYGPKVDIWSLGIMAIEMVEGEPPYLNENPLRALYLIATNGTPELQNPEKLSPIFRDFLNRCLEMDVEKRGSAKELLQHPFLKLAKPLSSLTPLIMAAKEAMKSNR

Row | Compound | kinase still bound, per cent of control (CDK7 (human)) | kinase still bound, per cent of control (PHKG1 (human)) | kinase still bound, per cent of control (CSNK1D (human)) | kinase still bound, per cent of control (ACVR1 (human)) | kinase still bound, per cent of control (ACVR2B (human)) | kinase still bound, per cent of control (MYO3A (human)) | kinase still bound, per cent of control (PAK2 (human)) | kinase still bound, per cent of control (NUAK1 (human)) | kinase still bound, per cent of control (ULK1 (human)) | kinase still bound, per cent of control (PTK2B (human)) | kinase still bound, per cent of control (DCLK2 (human)) | kinase still bound, per cent of control (TGFBR1 (human)) | kinase still bound, per cent of control (MAP3K4 (human)) | kinase still bound, per cent of control (MAP3K11 (human)) | kinase still bound, per cent of control [1] | kinase still bound, per cent of control (STK25 (human)) | kinase still bound, per cent of control (DAPK1 (human)) | kinase still bound, per cent of control (MLTK (human)) | kinase still bound, per cent of control (PRKACA (human)) | kinase still bound, per cent of control (RIOK3 (human)) | also measured
1 | Nc1ccc(-c2ccc3ncc4ccc(=O)n(-c5cccc(C(F)(F)F)c5)c4c3c2)cn1 | 51% | 100% | 63% | 86% | 97% | 100% | 100% | 83% | 96% | 86% | 98% | 100% | 100% | 96% | 64% | 56% | 91% | 65% | 100% | 100% | kinase still bound, per cent of control (CSNK1G1 (human)): 100%; kinase still bound, per cent of control (PDGFRA (human)): 62%; kinase still bound, per cent of control (EPHA8 (human)): 99%; kinase still bound, per cent of control (NEK9 (human)): 100%; kinase still bound, per cent of control (ANKK1 (human)): 100%; kinase still bound, per cent of control (LATS1 (human)): 100%; kinase still bound, per cent of control (GSK3A (human)): 100%; kinase still bound, per cent of control (PIK3CB (human)): 6.6%; kinase still bound, per cent of control (CAMKK2 (human)): 99%; kinase still bound, per cent of control (TLK2 (human)): 100%; kinase still bound, per cent of control (AURKB (human)): 89%; kinase still bound, per cent of control (PLK1 (human)): 94%; kinase still bound, per cent of control (PHKG2 (human)): 100%; kinase still bound, per cent of control (LYN (human)): 100%; kinase still bound, per cent of control (RPS6KA6 KD2 (human)): 70%; kinase still bound, per cent of control (CDK14 (human)): 97%; kinase still bound, per cent of control (ADCK4 (human)): 77%; kinase still bound, per cent of control (CDK16 (human)): 98%; kinase still bound, per cent of control (NEK1 (human)): 87%; kinase still bound, per cent of control (RET (human)): 100%
2 | OCCCNc1cc(-c2ccnc(Nc3cccc(Cl)c3)n2)ccn1 | 100% | 100% | 100% | 100% | 100% | 100% | 100% | 100% | 100% | 100% | 100% | 100% | 100% | 100% | 100% | 100% | 100% | 100% | 100% | 100% | kinase still bound, per cent of control (CSNK1G1 (human)): 100%; kinase still bound, per cent of control (PDGFRA (human)): 100%; kinase still bound, per cent of control (EPHA8 (human)): 100%; kinase still bound, per cent of control (NEK9 (human)): 100%; kinase still bound, per cent of control (ANKK1 (human)): 100%; kinase still bound, per cent of control (LATS1 (human)): 100%; kinase still bound, per cent of control (GSK3A (human)): 20%; kinase still bound, per cent of control (PIK3CB (human)): 100%; kinase still bound, per cent of control (CAMKK2 (human)): 100%; kinase still bound, per cent of control (TLK2 (human)): 100%; kinase still bound, per cent of control (AURKB (human)): 100%; kinase still bound, per cent of control (PLK1 (human)): 100%; kinase still bound, per cent of control (PHKG2 (human)): 100%; kinase still bound, per cent of control (LYN (human)): 100%; kinase still bound, per cent of control (RPS6KA6 KD2 (human)): 100%; kinase still bound, per cent of control (CDK14 (human)): 100%; kinase still bound, per cent of control (ADCK4 (human)): 100%; kinase still bound, per cent of control (CDK16 (human)): 1.9%; kinase still bound, per cent of control (NEK1 (human)): 100%; kinase still bound, per cent of control (RET (human)): 100%
